Read-outs that look alike come from different tables or passages of the source.
Legend:
SD(IGS) rats = assay: Evaluation of compounds' effect on food consumption in rats; type: in vivo; conditions: Rattus norvegicus, fasted SD(IGS) rats, high fat diet; for inhibition in vivo at 1 mg/kg: 1 mg/kg oral; for inhibition in vivo at 10 mg/kg: 10 mg/kg oral
From the text: Evaluation of Compounds' Effect on Food Consumption in Rats
SD(IGS) rats (Charles River Japan, Inc., 5-10 weeks of age, male) were used for the pharmacological tests. Rats were individually housed in the room set to a light cycle of lights-out at 10 am and lights-on at 10 pm, and were adapted to high fat diet (35% w/w). They were acclimated for more than 10 days prior to experiments under these conditions.
Based on the food consumption during acclimation and the body weight on the day of experiment, rats were grouped with no difference between groups.
As the test compound, Compounds A-P were used. These test compounds were suspended in 0.5% methyl cellulose solution.
Rats were fasted for about 24 hours before experiment. Each dose of the test compound was orally administered just after the lights-out, and immediately thereafter, the feeding of the high fat diet was resumed. The food weight was measured at 1, 4 and 8 hours after the resumption of the feeding to obtain the cumulative food consumption. The inhibitory rate on food consumption was determined by the following formula using the weight of the cumulative food consumption in each group.
The inhibitory rate on food consumption (%)=(1-test compound group/vehicle group)×100

human DGAT1 = biological target: T1, human DGAT1 (Homo sapiens, UniProt O75907); assay: Assay of DGAT1 enzyme inhibitory activity (Scintillation Proximity Assay); type: biochemical; conditions: human DGAT1 membrane fraction from Sf21 cells, 200 μM dioleoyl glycerol, 25 μM 14C decanoyl CoA, SPA; read-out: DGAT1 enzyme inhibitory activity (IC50 class)
T1 construct: FLAG (N); made in house; host or cells: Sf21 insect cells (baculovirus, Bac-to-Bac system); cell membrane fraction
T1 sequence (O75907 1-488): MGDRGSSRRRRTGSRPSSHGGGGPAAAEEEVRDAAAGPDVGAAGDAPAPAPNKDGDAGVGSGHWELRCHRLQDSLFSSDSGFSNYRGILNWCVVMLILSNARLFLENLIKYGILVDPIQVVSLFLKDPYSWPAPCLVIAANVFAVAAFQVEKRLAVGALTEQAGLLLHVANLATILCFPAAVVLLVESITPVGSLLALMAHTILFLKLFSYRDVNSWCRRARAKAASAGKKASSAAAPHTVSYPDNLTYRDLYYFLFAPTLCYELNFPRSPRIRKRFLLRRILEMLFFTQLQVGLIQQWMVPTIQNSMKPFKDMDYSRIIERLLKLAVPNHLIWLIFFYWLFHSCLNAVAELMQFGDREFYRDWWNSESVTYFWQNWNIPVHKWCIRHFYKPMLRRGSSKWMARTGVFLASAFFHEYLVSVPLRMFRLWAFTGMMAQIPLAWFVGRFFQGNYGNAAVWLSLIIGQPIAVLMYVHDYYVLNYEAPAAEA
Method: The enzyme source used for the assay was prepared using a human DGAT1 cDNA isolated from the human liver cDNA library. To be specific, a restriction enzyme cleaving sequence and a flag-labeling sequence were added onto the 5′ side and a restriction enzyme cleaving sequence was added onto the 3′ side of the human DGAT1 cDNA by PCR, and human flag tag DGAT1 baculovirus was prepared using Bac-to-Bac Baculovirus Expression System (Invitrogen). Sf21 insect cells were infected for 24-72 hours, recovered and ruptured in a homogenizing buffer using a microfluidizer. The homogenate was centrifuged at 45,000 rpm for 1 hour, and the cell membrane fractions were recovered and used as an enzyme source.
The DGAT inhibitory activity was measured by Scintillation Proximity Assay (SPA). Human DGAT1 membrane fraction (0.25 μg/well) was mixed with various concentrations of the compound and 200 μM of dioleoyl glycerol (enzyme substrate). […] Wheat Germ Agglutinin (WGA) SPA beads-suspended 6 mM HgCl2 (25 μL) was added to terminate the reaction, and the reaction mixture was kept at room temperature for 2 hours to allow adhesion of produced TG onto the SPA beads together with the cell membrane. The mixture was centrifuged at 2,500 rpm for 5 min to precipitate the SPA beads. The radioactivity was measured using Top Count.

[1] = cumulative food consumption 1 h after resumption of feeding, read-out: inhibitory rate on food consumption, 1 h
[2] = cumulative food consumption 4 h after resumption of feeding, read-out: inhibitory rate on food consumption, 4 h
[3] = cumulative food consumption 8 h after resumption of feeding, read-out: inhibitory rate on food consumption, 8 h

IC50 (human DGAT1) | SMILES | inhibition in vivo at 1 mg/kg (SD(IGS) rats; [1]) | inhibition in vivo at 1 mg/kg (SD(IGS) rats; [2]) | inhibition in vivo at 1 mg/kg (SD(IGS) rats; [3]) | inhibition in vivo at 10 mg/kg (SD(IGS) rats; [1]) | inhibition in vivo at 10 mg/kg (SD(IGS) rats; [2]) | inhibition in vivo at 10 mg/kg (SD(IGS) rats; [3])
 | CC1(C)Oc2nc(C(F)(F)F)nc(N)c2N=C1c1ccc2c(c1)CCC21CCC(CC(=O)O)CC1 (centres unmarked) [Compound K] | 19% | 37% | 22% |  |  | 
 | Cc1nc(N)c2c(n1)OC(C)(C)C(c1ccc([C@H]3CC[C@H](CNC(=O)C(C)(C)O)CC3)cc1)=N2 [Compound I] | 30% | 1% | 4% |  |  | 
> 100 nM | CCCc1c(C(=O)OCC)c(C(=O)OCC)c2c(-c3ccccc3)cc(N3CCOCC3)nn12 [Compound B, Diethyl 2-morpholin-4-yl-4-phenyl-7-propylpyrrolo[1,2-b]pyridazine-5,6-dicarboxylate] |  |  |  | 26% | 14% | 4%
 | Cc1nc(N)c2c(n1)OC(C)(C)C(c1ccc([C@H]3CC[C@H](CNC(N)=O)CC3)c(Cl)c1)=N2 [Compound O] | 20% | 13% | 12% |  |  | 
 | Cc1nc(N)c2c(n1)OC(C)(C)C(c1ccc([C@H]3CC[C@H](Cc4nc(=O)o[nH]4)CC3)cc1)=N2 [Compound J] | 8% | 23% | 10% |  |  | 
 | Cc1nc(N)c2c(n1)OC(C)(C)C(c1ccc([C@H]3CC[C@H](CC(=O)O)CC3)cc1)=N2 [Compound D] | 50% | 27% | 17% |  |  | 
 | CC1(C)Oc2nc(C(F)(F)F)nc(N)c2N=C1c1ccc([C@H]2CC[C@H](CNC(N)=O)CC2)c(Cl)c1 [Compound N] | 17% | 6% | 7% |  |  | 
 | Cc1nc(N)c2c(n1)OC(C)(C)C(c1ccc([C@H]3CC[C@H](CNC(=O)CO)CC3)c(Cl)c1)=N2 [Compound H] | 36% | 36% | 20% |  |  | 
 | CC1(C)Oc2ncnc(N)c2N=C1c1ccc([C@H]2CC[C@H](CC(=O)O)CC2)cc1 [Compound C] | 24% | 30% | 19% |  |  | 
 | CC1(C)Oc2ncnc(N)c2C=C1c1ccc2c(c1)CC[C@]21CC[C@@H](CC(=O)O)CC1 [Compound P] | 20% | 36% | 28% |  |  | 
 | CC1(C)Oc2ncnc(N)c2N=C1c1ccc([C@H]2CC[C@H](CC(=O)O)CC2)cc1 [Compound A] |  |  |  | 29% | 37% | 30%
10 to 100 nM | Cc1nc(N)c2c(n1)OC(C)(C)C(c1ccc([C@H]3CC[C@H](CN4CCCC(O)C4=O)CC3)cc1)=N2 (some centres unmarked) [Compound L] | 10% | 16% | 9% |  |  | 
 | Cc1nc(N)c2c(n1)OC(C)(C)C(c1ccc([C@H]3CC[C@H](CNC(=O)CO)CC3)cc1)=N2 [Compound E] | 6% | 15% | 20% |  |  | 
 | Cc1nc(N)c2c(n1)OC(C)(C)C(c1ccc([C@H]3CC[C@H](CNC(=O)C(C)(C)CO)CC3)cc1)=N2 [Compound G] | 29% | 19% | 15% |  |  | 
 | Cc1nc(N)c2c(n1)OC(C)(C)C(c1ccc([C@H]3CC[C@H](CCc4nc(=O)on4C)CC3)cc1)=N2 [Compound F] | 11% | 20% | 13% |  |  | 
 | CC1(C)Oc2nc(C(F)(F)F)nc(N)c2N=C1c1ccc([C@H]2CC[C@H](CC(=O)O)CC2)c(Cl)c1 [Compound M] | 26% | 12% | 14% |  |  | 

Reference: patent US20070027093A1, “Anorectic” (Japan Tobacco Inc., priority 2004, published 2007)
